In PMC10937738, “Evaluation of the photoprotective and antioxidant potential of an avobenzone derivative” (Frontiers in Physiology, 2024):
Several values for one entry are separate records, joined by “and”; a condition that tells them apart may be missing. Equal values may be shown once. Entries after “also recorded” stand apart in the source; their conditions may differ.

Assays:
HaCaT keratinocytes [1] = experiment: Cell viability of HaCaT keratinocytes (NRU assay); format: cell-based; settings: SDS 100 μg/mL; for Cytotoxicity for HaCaT cells: avobenzone derivative 31.25–1,000 μg/mL, vs untreated control, 70% threshold ISO 10993-5
Description: Prior to the beginning of the assay, cell viability was evaluated to exclude the possibility that the decrease in fluorescence intensity was related to cell death and not to antioxidant activity. HaCaT keratinocytes were cultured in DMEM supplemented with fetal bovine serum (10%), pyruvate (1 mM), penicillin (100 IU/mL) and streptomycin (100 μg/mL), seeded in 96-well plates (1 × 10^5 cells/well) and, 24 h later, treated with avobenzone derivative (31,25–1000 μg/mL; constant factor: 2). Cell viability was determined using the NRU assay ([Gaspar et al., 2013]; [Rangel et al., 2020]) and sodium dodecyl sulfate (SDS) was used as a positive control (100 μg/mL). Untreated cells absorbance at 540 nm were considered 100% of cell viability to calculate the percentage relative to each sample tested.

3T3 BALB/c fibroblasts = experiment: 3T3 Neutral red uptake phototoxicity test (3T3 NRU PT, OECD TG 432); format: cell-based; settings: UVA 9 J/cm^2
Description: The 3t3 Neutral red uptake phototoxicity (3t3 NRU PT) test was performed in accordance to OECD TG n° 432 ([OECD, 2019a]) using 3T3 BALB/c fibroblasts cells from the Cell Bank of Rio de Janeiro (Rio de Janeiro, Brazil). Fibroblasts were cultured in DMEM supplemented with calf serum (10% v/v), L-glutamine (4 mM) and antibiotic mixture (penicillin, streptomycin and amphotericin B) and incubated at 37°C with 5% CO2. […] The initial concentration for the proportion 5:7:5 was 100 μg/mL for octyl methoxycinnamate, 71.4 μg/mL for avobenzone, and 71.4 μg/mL for avobenzone derivative. These preparations were also diluted in PBS (pH 7.2) to generate samples with 8 different concentrations in a geometric progression (constant factor = 1.47). The highest final concentration of DMSO was 1%. Fibroblasts were seeded at a density of 10^4 cell/well and after 24 h of incubation (5% CO2; 37°C), they were treated with 8 different concentrations of the combinations in the wells in sextuplicate, incubated for 1 h (5% CO2; 37°C) and irradiated with UVA radiation of 9 J/cm^2. […]
Cell viability was measured using the NRU assay with the uptake of the vital dye neutral red into cellular lysosomes. […] After measuring the absorbance of both plates at 540 nm using a microplate reader (SynergyTM 2, Biotek), all data were analyzed by Phototox Software 2.0 (ZEBET, Germany), and the mean photo effect (MPE) was calculated. […]

HaCaT keratinocytes [2] = experiment: Protection against intracellular UVA-induced ROS production (DCFH2-DA probe), HaCaT monolayer; format: cell-based; settings: UVA 4 J/cm^2
Description: To evaluate intracellular ROS production, such as hydroxyl radical, hydrogen peroxide, nitrite and carbonate anion, the probe 2,7-dichlorodihydrofluorescein-diacetate (DCFH2-DA) was used. This probe can undergo hydrolysis by cellular esterases forming the compound DCFH, that can be converted by ROS into the fluorescent compound […] (DCF), measured at the end of the assay ([Kalyanaraman et al., 2012]; [Alam et al., 2013]). The assay was performed under the same conditions (cell type, density and exposure times) as the evaluation of cell viability in immortalized HaCaT keratinocytes.
In detail, 1 × 10^5 cells/well of HaCaT keratinocytes were seeded in 96-well plates and incubated for 24 h at 37°C in a 5% CO2 atmosphere. Then, cells were treated with the avobenzone derivative (31,25–1,000 μg/mL; constant factor: 2) for 1 h and the probe DCFH2-DA (10 µM) for 30 min, followed by 4 J/cm^2 of UVA radiation (Solar simulator Dr. Hönle type SOL-500, Planegg, Germany). This UV waveband was chosen because UVA and visible light are the most relevant radiations for ERO production ([Zastrow et al., 2009]; [Vandersee et al., 2015]). Quercetin (10 μg/mL) and norfloxacin (100 μg/mL) were used as antioxidant and pro-oxidant controls, respectively. The plates were measured using a microplate reader (Synergy™ HT, BioTek, United States) at 485 nm excitation and 528 nm emission. Results are expressed as a percentage of fluorescence in relation to the irradiated control, considered 100%.

[3] = Photoreactivity ROS assay (OECD TG 495): singlet oxygen (SO) and superoxide anion (SA) generation
Description: The photoreactivity assay was conducted to detect the generation of oxygen singlet (^1O2; SO) and superoxide anion (O2 ^−•; SA), according to OECD TG n° 495, as described in [Freitas et al. (2015)]. […] SO generation was detected by spectrophotometric measurement of p-nitrosodimethylaniline (RNO) bleaching, followed by decreased absorbance of RNO at 440 nm and SA generation was detected by observing the reduction of nitroblue tetrazolium (NBT) at 560 nm. The assay was performed in triplicate in three independent experiments.
According to the ROS Assay protocol ([OECD, 2019b]), the compound’s photoreactivity is classified according to Table 2.

[4] = design: method as in Santana Reis et al., 2014; settings: method not stated; ref Santana Reis et al., 2014; cited from earlier work
[5] = Photostability by UV spectrophotometry, solutions in isopropanol; format: physicochemical
Description: To assess the photoprotective potential of the new UV filter’s derivative, as well as its combination with avobenzone and octyl methoxycinnamate (Cb), a photostability assay was conducted irradiating all samples at a dose of 27,6 J/cm^2 emitted by a UVA lamp (Philips UVA Actinic BL/10, Netherlands) ([ICH, 1996]; [1998]), while the negative controls were kept in a dark place. The derivative was tested at 100 μg/mL in isopropanol and the combinations Cb (avobenzone, octyl methoxycinnamate and avobenzone derivative) and Cc (avobenzone, octyl methoxycinnamate and ethylhexyl methoxycrylene were tested with a proportion of 4:8:5 (w/w), where the initial concentrations were 100 μg/mL for octyl methoxycinnamate, 50 μg/mL for avobenzone and 62.5 μg/mL for avobenzone derivative/ethylhexyl methoxycrylene. Solutions were analyzed by spectrophotometry in the 280–400 nm range. The results are expressed as a percentage of the area of irradiated samples related to the area of non-irradiated samples according to [Gaspar and Maia Campos (2006)] and [Tavares et al. (2020)].

[6] = DPPH free radical scavenging; settings: 30 min in the dark, absorbance 517 nm
Description: The DPPH free radical scavenging method was conducted according to [Martins et al. (2016)], with modifications. This assay is based on the reduction of the 2,2-diphenyl-1-picrylhydrazyl radical by the antioxidant agent, acting as a hydrogen donor. DPPH is a stable radical due to its molecular conformation, capable of reacting with hydrogen/electron donors, generating its reduced form, accompanied by a reduction in its absorbance (517 nm) ([Kedare and Singh, 2011]). The antioxidant activity is then determined by monitoring the change in the color of the reaction medium, changing from violet to yellow ([Pisoschi and NEgulescu, 2012]).
In a 96-well plate, 100 µL of each sample were diluted in methanol. The concentrations used for avobenzone derivative under study were […] (constant factor: 2) and quercetin was used as a positive control for the test (14–0.109 μg/mL, constant factor: 2). The plate was covered and kept in a dark place for 30 min at room temperature. The absorbance reading was performed at 517 nm using a microplate reader (Synergy™ 2#, Biotek, United States), and the results obtained were used to calculate the inhibition percentages. […] The half maximum inhibitory concentration (IC50-DPPH) was calculated using the linear equation by replacing the value of y with 50 ([Chen et al., 2013]).

[7] = test system: reconstructed human skin (RHS); experiment: UVA-induced intracellular ROS production (DCFH2-DA probe) in reconstructed human skin model; format: cell-based; settings: 200 μg/mL, 25 µL topical 1 h; UVA 10 J/cm^2
Description: In-house RHS models were prepared on 24-well cell culture inserts, with primary human fibroblasts and keratinocytes from foreskin (pooled from three donors) after approval by the Ethics Committee in Research Involving Human Beings—School of Pharmaceutical Sciences of Ribeirão Preto—USP (CAAE n° 35685220.3.0000.5403; Protocol CEP/FCFRP n° 551).
Primarily, the dermal compartment consisted of collagen type I (Corning®) and 1.14 × 10^5 normal human fibroblasts that were seeded into the insert (0.4 µm pore size; ThinCert™, Greiner Bio-One GmbH, Frickenhausen—Germany) and incubated overnight. After 20 h, 3.7 × 10^5 normal human keratinocytes were seeded on the top of the dermis mixture and kept submerged in an in-house prepared culture medium for 24 h, so the cells could form a monolayer. […]
Immediately after irradiation and washing with PBS, the tissues were frozen in liquid nitrogen and 8 µm histological sections were obtained in a cryostat. Pictures were taken in an inverted Ti-S microscope (Nikon Instruments Inc., Holland), 488 nm, using 100 ms of exposure intensity and analyzed by ImageJ software ([Rasmussen et al., 2010]; [Marionnet et al., 2014]). Results of fluorescence intensity were normalized to area/pixels and expressed as percent fluorescence compared to untreated irradiated (NT + UV) control, considered 100%.

[8] = solutions in isopropanol, UVA dose 27,6 J/cm^2, area under curve of irradiated vs non-irradiated (100%)

CCCCCCCCCCCCOS(=O)(=O)[O-].[Na+] [SDS, sodium dodecyl sulfate]
Cell viability (HaCaT keratinocytes [1]; untreated cells = 100%): < 70%
Cytotoxicity for HaCaT cells (HaCaT keratinocytes [1]): cytotoxic

CCn1cc(C(=O)O)c(=O)c2cc(F)c(N3CCNCC3)cc21 [Norfloxacin, reference compound]
MPE (mean photo effect) (3T3 BALB/c fibroblasts; Phototox Software 2.0, one value per independent experiment (two)): 0.568 and 0.520
Increase of ROS production compared to NT + UV (HaCaT keratinocytes [2]; 100 μg/mL): approx. 46%

CC(C(=O)O)c1cccc(C(=O)c2ccccc2)c1 (stereo not drawn) [Ketoprofen, ketoprofen]
SA (superoxide anion generation, NBT reduction at 560 nm) ([3]; avobenzone derivative 1.0 mM, mean ± SEM, n = 3): 116 ± 20.6

O=C(N/N=C/c1ccc(O)cc1)c1ccc(O)cc1 [avobenzone derivative, (E)-4-hidroxi-N’-(4-hydroxybenzylidene)benzohydrazide]
LogP [4]: 1.32 ± 0.52
Remaining absorption values after irradiation (%) UVA [5, 8]: 97.7 ± 2.5%
Remaining absorption values after irradiation (%) UVB [5, 8]: 97.8 ± 2.1%
Stability classification ([5]; solutions, irradiated vs non-irradiated pair (p < 0.05 = photounstable)): Photostable
Prediction model (phototoxicity) (3T3 BALB/c fibroblasts; OECD TG 432): non phototoxic; also recorded: Non-Phototoxic
Reduction in ROS generation compared to NT + UV (HaCaT keratinocytes [2]; 125 μg/mL): 37%
Reduction in ROS generation compared to NT + UV (HaCaT keratinocytes [2]; 250 μg/mL): 31%
Reduction in ROS generation compared to NT + UV (HaCaT keratinocytes [2]; 500 μg/mL): 58%
ROS values higher than NT + UV (possible pro-oxidant effect) (HaCaT keratinocytes [2]; 1,000 μg/mL): 5%
IC50 (DPPH) [6]: 18.2 ± 10.2 µg/mL
Classification (photoreactivity) [3]: Non-photoreactive
Reduction in ROS generation compared to NT + UV [7]: 30.7%
Cytotoxicity for HaCaT cells (HaCaT keratinocytes [1]): not cytotoxic

N[C@@H](Cc1c[nH]cn1)C(=O)O [L-histidine]
Classification (photoreactivity) [3]: Non-photoreactive

O=c1c(O)c(-c2ccc(O)c(O)c2)oc2cc(O)cc(O)c12 [quercetin, reference compound]
Decrease of ROS production compared to NT + UV (HaCaT keratinocytes [2]; 10 μg/mL): approx. 67%
IC50 (DPPH) [6]: 2.85 ± 1.03 µg/mL
